In patent US20260337225A1, “SMALL PEPTIDE AND USE THEREOF IN MUCOSAL REPAIR” (FORREST BIO-PHARM (SHENZHEN) CO., LTD., priority 2022, published 2026):
“And” between values parts separate entries of the source, which are not always exact repeats. Equal values may be shown once. No end group written: not given here.

Legend:
[1] = test system: rat model of chronic gastric ulcer; assay: Rat model of chronic gastric ulcer (anhydrous ethanol followed by aspirin); type: in vivo
Experimental: The function of the small peptides obtained in Embodiment 2 was validated in the present embodiment by using a rat model of chronic gastric ulcer.
Control group (model group): A rat model of chronic gastric ulcer model was constructed by intragastric administration of anhydrous ethanol (1 mL/200 g), followed by intragastric administration of 200 mg/kg aspirin 2 h later. The rats were administered with aspirin once daily for 4 days. At day 5, the rats were administered with an equal volume of saline.
Blank group: The rats were administered with an equal volume of saline.
Drug treatment groups: A rat model of chronic gastric ulcer was constructed as above-mentioned. At day 5, the rats were respectively administered with the rice polypeptide mixture (50 mg/kg), small peptide P1 (0.5 mg/kg), or small peptide P2 (0.5 mg/kg) twice daily for 3 days. On day 4, the rats were sacrificed and their gastric necropsy was performed.
Positive control group (omeprazole 2.6 mg/kg): A rat model of chronic gastric ulcer was constructed as above. At day 5, the rats were administered with omeprazole (2.6 mg/kg) twice daily for 3 days. On day 4, The rats were sacrificed and their gastric necropsy was performed.
Each group consisted of 10 rats. After 24 h of modeling, the rats were sacrificed to extract the gastric tissue, for measuring gastric pH, and observing changes in ulcer area via gastric tissue dissection. Liver and kidney tissues were collected for pathological section observation to assess drug safety.

[2] = test system: normal human kidney-2 cells (HK-02, HK-2); assay: Nephrotoxicity: cytotoxicity in HK-2 cells by CCK-8 assay; type: cell-based; conditions: 10-200 μg/mL, 24 h, in words
Experimental: Referring to the method from a literature (Sinomenine improve diabetic nephropathy by inhibiting fibrosis and regulating the JAK2/STAT3/SOCS1 pathway in streptozotocin-induced diabetic rats. Life Sci. 2021; 265:118855), normal human kidney-2 cells (HK-02, HK-2) (Shanghai Cell Bank) were seeded into 96-well plates and administered with small peptides P1 and P2 at concentrations of 0 μg/mL, 10 μg/mL, 20 μg/mL, 50 μg/mL, 100 μg/mL, and 200 μg/mL. After 24-hour stimulation, the cytotoxicity was assessed by Cell Counting Kit-8 (CCK-8) assay.

[3] = test system: normal human hepatic parenchymal L-02 cells; assay: Hepatotoxicity: cytotoxicity in L-02 cells by CCK-8 assay; type: cell-based; conditions: 10-200 μg/mL, 24 h, in words
Experimental: Referring to the method from a literature (Determination of emodin in L-02 cells and cell culture media with liquid chromatography-mass spectrometry: Application to a cellular toxicokinetic study. J Pharm Biomed Anal. 2012; 71:71-78), normal human hepatic parenchymal L-02 cells (obtained from Shanghai Cell Bank) were seeded into 96-well plates and treated with small peptides P1 and P2 at concentrations of 0 μg/mL, 10 μg/mL, 20 μg/mL, 50 μg/mL, 100 μg/mL, and 200 μg/mL. After 24-hour stimulation, the cytotoxicity was assessed by Cell Counting Kit-8 (CCK-8) assay.

[4] = Animal safety observation: rat body weight; type: in vivo; conditions: for Rat body weight: 1000 mg/kg daily, intragastric gavage, individual rats, Rat 1-7 = c1-c7, 1000 mg/kg
Experimental: (§1) The rats were administered with the small peptides via intragastric gavage at doses of 500 mg/kg and 1000 mg/kg daily for 14 days. Changes in body weight were recorded. On day 14, the rats were sacrificed to measure alaninetransaminase (ALT) activity and blood urea nitrogen (BUN) levels in rat serum for assessing whether there was hepatotoxicity and nephrotoxicity in rats.

[5] = test system: mouse model of acute gastric ulcer; assay: Mouse model of acute gastric ulcer (anhydrous ethanol); type: in vivo
Experimental: In this embodiment, the function of the small peptides obtained in Embodiment 2 was validated using a mouse model of acute gastric ulcer.
Control group (model group): A mouse mode of acute gastric ulcer was constructed using anhydrous ethanol (0.1 mL/10 g) (referring to the literature of Study on Action of kangfuxin Solution on Experimental Gastric ulcer [J]. Chinese Traditional Patent Medicine, 2001, 23(2): 122-124. DOI: 10.3969/j.issn.1001-1528.). After modeling, the mice were administered with an equal volume of saline.
Blank group: The mice were administered with an equal volume of saline.
Drug treatment groups: A mouse mode of acute gastric ulcer was constructed by treating the mouse with anhydrous ethanol (0.1 mL/10 g). At 2 h, 12 h, and 22 h after modeling, the mice were administered with the rice polypeptide mixture (50 mg/kg) as the mixture group, small peptide P1 (0.5 mg/kg) as the P1 group, and small peptide P2 (0.5 mg/kg) as the P2 group, respectively.
Each group consisted of 8 mice. After 24 h of modeling, the mice were sacrificed, to extract the gastric tissue, and observe changes in bleeding points and ulcer area via gastric tissue dissection.

Rat kidney = assay: Animal safety observation: rat kidney injury (serum blood urea nitrogen levels); type: in vivo; conditions: 14 days; for Blood Urea Nitrogen Levels: intragastric gavage, rat serum, individual rats (Rat 1-6)
Experimental: as §1

mucosal repair = assay: Screening of active monomers for mucosal repair effects; conditions: repeated experiments and screening; in words
Text: The inventors observed the active monomers in the polypeptide mixture of Polimi-1 rice variety by mass spectrometry analysis of the polypeptides from various ordinary rice varieties and Polimi-1 rice variety. The small peptides identical to ordinary rice varieties and with high levels in ordinary rice varieties were excluded by a method of exclusion. Finally, the small peptides with higher levels in Polimi-1 rice variety and lower levels in other ordinary rice varieties were selected for further study, as well as those with higher levels in Polimi-1 rice variety and absent in other ordinary rice varieties. Since peptides with molecular weights below 1500 Daltons were extracted from the mixed polypeptide mixture previously obtained, other peptides above this threshold were excluded.

Rat liver = assay: Animal safety observation: rat liver injury (serum alaninetransaminase activity); type: in vivo; conditions: 14 days; for Alaninetransaminase Activity, Average / Alaninetransaminase Activity: intragastric gavage, rat serum; for Alaninetransaminase Activity, Average: average of 6 rats, saline average P1 35.83333, P2 30.83333; for Alaninetransaminase Activity: individual rats (Rat 1-6)
Experimental: as §1

[6] = 500 and 1000 mg/kg daily, rats, in words

GPSGPELRG [Small peptide P2, GPSGPELRG]
Ulcer index ([1]; 0.5 mg/kg twice daily for 3 days, 10 rats, ratio of ulcer area to gastric mucosal tissue area, Control group 40.5 ± 5.3): 5.5 ± 3.7% | Ulcer inhibition rate ([1]; 0.5 mg/kg twice daily for 3 days, percentage reduction in ulcer area compared to the Control group): 86.4% | anti-ulcer effects ([1]; P1, P2 0.5 mg/kg, mixture 50 mg/kg, in words): exhibit anti-ulcer effects | P versus Positive control group ([1]; anti-ulcer effects compared to omeprazole 2.6 mg/kg, P1, P2 0.5 mg/kg, mixture 50 mg/kg): > 0.05 | viability of normal human kidney cells HK-02 (HK-2) [2]: no effect | nephrotoxicity ([2]; HK-2 cells): no nephrotoxicity | viability of normal human liver cells L-02 [3]: no effect | hepatotoxicity ([3]; L-02 cells): no hepatotoxicity | Rat body weight ([4]; Day 1): 208 g and 215 g and 219 g and 218 g and 217 g (2×) and 214 g | Rat body weight ([4]; Day 2): 210 g and 216 g (2×) and 220 g and 221 g and 223 g and 218 g | Rat body weight ([4]; Day 3): 211 g and 220 g and 221 g and 222 g and 225 g and 210 g and 219 g | Rat body weight ([4]; Day 4): 213 g and 224 g | Rat body weight ([4]; Day 5): 214 g and 225 g (2×) and 229 g (2×) and 221 g and 226 g | Rat body weight ([4]; Day 6): 214 g and 226 g and 225 g and 231 g and 230 g and 224 g and 229 g | Rat body weight ([4]; Day 7): 215 g and 226 g and 230 g (2×) and 237 g and 232 g and 225 g | Rat body weight ([4]; Day 8): 216 g and 229 g (2×) and 233 g and 236 g and 234 g and 232 g | Rat body weight ([4]; Day 9): 221 g and 230 g and 235 g (2×) and 239 g and 234 g and 231 g | Rat body weight ([4]; Day 10): 224 g and 231 g and 238 g and 240 g and 239 g and 235 g and 237 g | Rat body weight ([4]; Day 11): 225 g and 234 g and 239 g and 242 g (2×) and 238 g and 240 g | Rat body weight ([4]; Day 12): 230 g and 235 g and 239 g and 244 g (2×) and 245 g and 240 g | Rat body weight ([4]; Day 13): 231 g and 238 g and 240 g and 245 g (2×) and 249 g and 241 g | Rat body weight ([4]; Day 14): 235 g and 239 g and 241 g and 248 g and 250 g and 244 g (2×) | Rat body weight ([4]; Day 15): 238 g and 241 g and 242 g and 250 g and 252 g and 245 g (2×) | effects on rat body weight ([4]; daily intragastric gavage for 14 days, in words): minimal effects | Ulcer index ([5]; 0.5 mg/kg at 2 h, 12 h and 22 h after modeling, 8 mice, ratio of ulcer area to gastric mucosal tissue area, Control group 58.3 ± 10.1): 7.1 ± 5.5% | Ulcer inhibition rate ([5]; 0.5 mg/kg at 2 h, 12 h and 22 h after modeling, percentage reduction in ulcer area compared to the Control group): 87.8% | result compared to the mixture group ([5]; 0.5 mg/kg versus mixture 50 mg/kg, in words): better results than the mixture in larger dose | anti-ulcer effects ([5]; 0.5 mg/kg, in words): excellent anti-ulcer effects | Blood Urea Nitrogen Levels (Rat kidney; 500 mg/kg daily): 19 mg/dL and 37 mg/dL and 32 mg/dL and 34 mg/dL and 42 mg/dL and 33 mg/dL | Blood Urea Nitrogen Levels (Rat kidney; 1000 mg/kg daily): 23 mg/dL and 29 mg/dL and 35 mg/dL and 39 mg/dL and 43 mg/dL and 44 mg/dL | nephrotoxicity (Rat kidney; [6]): without hepatotoxicity and nephrotoxicity | mucosal repair effects (mucosal repair): found to have mucosal repair effects | Alaninetransaminase Activity, Average (Rat liver; 500 mg/kg daily): 29.33 IU/L | Alaninetransaminase Activity (Rat liver; 500 mg/kg daily): 34 IU/L (2×) and 42 IU/L and 17 IU/L and 21 IU/L and 28 IU/L | Alaninetransaminase Activity, Average (Rat liver; 1000 mg/kg daily): 36.67 IU/L | Alaninetransaminase Activity (Rat liver; 1000 mg/kg daily): 29 IU/L and 43 IU/L and 45 IU/L and 33 IU/L and 32 IU/L and 38 IU/L | hepatotoxicity (Rat liver; [6]): without hepatotoxicity
